Data taken from patent US11840686B2, “Modulation of prekallikrein (PKK) expression” (Ionis Pharmaceuticals, Inc., priority 2013, dated 2023).
pIC50: −log10 of the molar value. Strand notation (5' to 3'): a small letter for the sugar, then the base; units joined by * are phosphorothioate-linked, units joined directly phosphodiester-linked; [ ] holds rarer units or linkages, { } end groups; capitals alone tell only the bases. e = 2'-O-(2-methoxyethyl) (MOE); k = constrained ethyl (cEt); [5mC] = 5-methylcytosine; d = 2'-deoxy (DNA)

Tests used:
Type in all cases: cell-based
[1] = system: human PKK mRNA; test: Antisense inhibition of human PKK mRNA in HepaRG cells, 3,000 nM (Example 1); settings: relative to untreated control cells
Procedure: Antisense oligonucleotides were designed targeting a PKK nucleic acid and were tested for their effects on PKK mRNA in vitro. HepaRG™ cells, which are terminally differentiated hepatic cells derived from a human hepatic progenitor cell line and retain many characteristics of primary human hepatocytes (Lubberstedt M. et al., J. Pharmacol. Toxicol. Methods 2011 63: 59-68), were used in the screen.
The chimeric antisense oligonucleotides in the tables below were designed as 5-10-5 MOE gapmers. The gapmers are 20 nucleosides in length, wherein the central gap segment comprises of ten 2′-deoxynucleosides and is flanked by wing segments on the 5′ direction and the 3′ direction comprising five nucleosides each. Each nucleoside in the 5′ wing segment and each nucleoside in the 3′ wing segment has a 2′-O-methoxyethyl modification. The internucleoside linkages throughout each gapmer are phosphorothioate linkages. All cytosine residues throughout each gapmer are 5-methylcytosines. “Start site” indicates the 5′-most nucleoside to which the gapmer is targeted in the human gene sequence. “Stop site” indicates the 3′-most nucleoside to which the gapmer is targeted in the human gene sequence.
Cultured HepaRG™ cells at a density of 20,000 cells per well were transfected using electroporation with 3,000 nM antisense oligonucleotide. After a treatment period of approximately 24 hours, RNA was isolated from the cells and PKK mRNA levels were measured by quantitative real-time PCR. Human primer probe set RTS3454 (forward sequence […], designated herein as SEQ ID NO: 20; reverse sequence […], designated herein as SEQ ID NO: 21; probe sequence […], designated herein as SEQ ID NO: 22) was used to measure mRNA levels. PKK mRNA levels were adjusted according to total RNA content, as measured by RIBOGREEN®. The antisense oligonucleotides were tested in a series of experiments that had similar culture conditions. Results are presented as percent inhibition of PKK, relative to untreated control cells.

[2] = system: human PKK mRNA; test: Antisense inhibition of human PKK mRNA in HepaRG cells, 1,000 nM, MOE/deoxy/cEt oligonucleotides (Example 3); settings: HepaRG cells, electroporation with 1,000 nM antisense oligonucleotide
In short: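 HepaRG cells at 20,000 per well electroporated with 1,000 nM 16-mer MOE/cEt/deoxy gapmers (phosphorothioate, 5-methylcytosine). After about 24 h, PKK mRNA measured by qRT-PCR with primer probe set RTS3454, normalized to RIBOGREEN total RNA. Reported as percent inhibition versus untreated cells.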

[3] = system: human PKK mRNA; test: Dose-dependent antisense inhibition of human PKK in HepaRG cells, 0.11-3.00 uM (Example 6); settings: for pIC50: 0.11-3.00 μM; for percent inhibition of PKK mRNA, 0.11 μM / percent inhibition of PKK mRNA, 0.33 μM / percent inhibition of PKK mRNA, 1.00 μM / percent inhibition of PKK mRNA, 3.00 μM: electroporation, approx. 16 hours, relative to untreated control cells
In short: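 HepaRG cells were electroporated with antisense oligonucleotide at 0.11, 0.33, 1.00 or 3.00 μM. After about 16 h, PKK mRNA was quantified by qRT-PCR with primer probe set RTS3454 and normalized to total RNA by RIBOGREEN. IC50 was derived from the dose series.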

[4] = Table 2, PKK mRNA, HepaRG cells, 3,000 nM, electroporation, ~24 h
[5] = Table 1, PKK mRNA, HepaRG cells, 3,000 nM, electroporation, ~24 h
[6] = Table 3, HepaRG cells, electroporation with 3,000 nM antisense oligonucleotide, approx. 24 hours, PKK mRNA by RT-PCR (RTS3454)
[7] = Table 4, HepaRG cells, electroporation with 3,000 nM antisense oligonucleotide, approx. 24 hours, PKK mRNA by RT-PCR (RTS3454)
[8] = approximately 24 hours, primer probe set RTS3454, relative to untreated control cells, experiment of Table 24
[9] = Table 22 experiment, approx. 24 hours, PKK mRNA by RT-PCR (RTS3454), relative to untreated control cells

531062 (antisense e[5mC]*eA*eG*eG*eT*dT*dG*d[5mC]*dT*d[5mC]*d[5mC]*d[5mC]*dT*dG*d[5mC]*eG*eG*eG*e[5mC]*eA) [compound 531062]
% inhibition [1, 4]: 39%

530968 (antisense e[5mC]*eA*eA*eG*eA*dT*dG*d[5mC]*dT*dG*dG*dA*dA*dG*dA*eT*eG*eT*eT*e[5mC]) [compound 530968]
% inhibition [1, 5]: 18%

530937 (antisense eT*eA*eA*eG*eT*dT*dG*d[5mC]*dT*dT*dG*d[5mC]*dT*dT*dG*eA*eA*eT*eA*eA) [compound 530937]
% inhibition [1, 5]: 0%

531073 (e[5mC]*e[5mC]*e[5mC]*eA*eG*dG*d[5mC]*dT*d[5mC]*dA*dG*dA*dA*dT*dT*eT*eG*eA*e[5mC]*eT; antisense) [compound 531073]
% inhibition [1, 4]: 51%

531052 (antisense eA*eG*eA*e[5mC]*e[5mC]*dA*dT*d[5mC]*d[5mC]*dG*dT*dT*dG*dG*dG*eT*eT*eA*eT*eT) [compound 531052]
% inhibition [1, 4]: 60%

531147 (antisense e[5mC]*e[5mC]*eA*eT*eT*dA*dT*dT*dT*d[5mC]*d[5mC]*dA*dT*d[5mC]*dA*e[5mC]*e[5mC]*eT*eG*e[5mC]) [compound 531147]
% inhibition [1, 6]: 18%

531167 (antisense e[5mC]*eA*eA*eG*eA*dA*dA*d[5mC]*d[5mC]*dA*d[5mC]*d[5mC]*dA*dA*dA*eG*eG*eA*eA*eG) [compound 531167]
% inhibition [1, 7]: 37%

531094 (eG*eA*eA*eT*eG*dT*d[5mC]*dA*dG*dG*d[5mC]*d[5mC]*dT*d[5mC]*dT*eG*eG*eG*e[5mC]*e[5mC]; antisense) [compound 531094]
% inhibition [1, 6]: 48%

531137 (antisense eT*eG*eT*e[5mC]*eT*dA*d[5mC]*dT*dA*dT*dT*dT*dG*dA*d[5mC]*e[5mC]*eA*eA*eT*eA) [compound 531137]
% inhibition [1, 6]: 19%

530993 (e[5mC]*eA*eA*eA*e[5mC]*dA*dT*dT*d[5mC]*dA*d[5mC]*dT*d[5mC]*d[5mC]*dT*eT*eT*eA*eA*e[5mC]; antisense) [compound 530993]
% inhibition [1, 5]: 30%

531158 (antisense eA*e[5mC]*e[5mC]*eT*eT*dA*d[5mC]*dA*dA*dG*d[5mC]*dA*dT*d[5mC]*dT*eT*eT*eT*e[5mC]*e[5mC]) [compound 531158]
% inhibition [1, 6]: 41%

531059 (antisense eA*e[5mC]*eA*eT*eT*d[5mC]*d[5mC]*dA*dT*dT*dG*dT*dG*dT*dT*eT*eG*e[5mC]*eA*eA) [compound 531059]
% inhibition [1, 4]: 55%

531095 (e[5mC]*eT*eA*eA*e[5mC]*dA*dA*d[5mC]*d[5mC]*d[5mC]*d[5mC]*dA*d[5mC]*dA*dA*eT*eA*eT*e[5mC]*eA; antisense) [compound 531095]
% inhibition [1, 6]: 20%

530984 (antisense eT*eT*eA*eG*eA*dA*dT*dG*dG*d[5mC]*dA*dG*dG*dG*dT*eT*e[5mC]*eA*eG*eG) [compound 530984]
% inhibition [1, 5]: 25%

531106 (antisense eA*eA*eG*eA*eT*d[5mC]*dT*dA*dG*dA*dT*dA*dA*dT*dT*e[5mC]*eT*eT*eG*eT) [compound 531106]
% inhibition [1, 6]: 31%

530962 (antisense e[5mC]*e[5mC]*eT*eT*eT*dT*dT*dT*dG*dG*d[5mC]*dA*dT*dT*d[5mC]*eT*eT*e[5mC]*eA*eA) [compound 530962]
% inhibition [1, 5]: 64%

531193 (eT*eT*eA*eT*eT*d[5mC]*d[5mC]*d[5mC]*dA*dG*d[5mC]*dT*d[5mC]*dT*dA*eA*eA*eA*eT*eA; antisense) [compound 531193]
% inhibition [1, 7]: 23%

531145 (antisense eG*e[5mC]*e[5mC]*eT*eA*dG*dG*dA*dG*dA*dG*dA*dA*dA*dA*eA*eT*eA*eA*eA) [compound 531145]
% inhibition [1, 6]: 0%

531196 (eT*eT*eG*eA*eG*dT*d[5mC]*dA*dG*dA*d[5mC]*dA*dT*d[5mC]*d[5mC]*eT*eG*eT*eG*eA; antisense) [compound 531196]
% inhibition [1, 7]: 38%

531048 (antisense eT*eT*eA*eT*eA*dA*dT*d[5mC]*dT*dT*dG*dA*dT*dA*dT*e[5mC]*eT*eT*eT*eT) [compound 531048]
% inhibition [1, 4]: 42%

531194 (e[5mC]*eT*e[5mC]*eA*e[5mC]*dA*dA*dT*dT*d[5mC]*dT*dG*dT*dA*dA*eG*eG*eG*eA*eA; antisense) [compound 531194]
% inhibition [1, 7]: 64%

530932 (antisense eT*eG*eT*e[5mC]*eA*d[5mC]*dT*dT*dA*dA*dA*dA*dA*dT*dG*eA*eA*e[5mC]*eG*eG) [compound 530932]
% inhibition [1, 5]: 52%

531045 (antisense eT*eT*eT*e[5mC]*eT*dG*dG*d[5mC]*dA*dT*dT*d[5mC]*dT*dT*d[5mC]*eA*eT*eT*eT*eG) [compound 531045]
% inhibition [1, 4]: 37%

531050 (antisense eT*eT*eG*eG*eG*dT*dT*dA*dT*dT*dT*dT*dA*dT*dA*eA*eT*e[5mC]*eT*eT) [compound 531050]
% inhibition [1, 4]: 18%

530980 (antisense eT*eT*eG*e[5mC]*eA*dG*dG*dT*dT*dA*dA*dA*dA*dG*dG*e[5mC]*eT*eA*eT*eA) [compound 530980]
% inhibition [1, 5]: 29%

548024 (eG*e[5mC]*kT*dG*dT*d[5mC]*dA*dG*d[5mC]*dT*dT*d[5mC]*dA*k[5mC]*k[5mC]*eT; antisense) [compound 548024]
% inhibition [2, 8]: 79%
pIC50 [3]: 6.52
percent inhibition of PKK mRNA, 0.11 μM [3]: 28%
percent inhibition of PKK mRNA, 0.33 μM [3]: 57%
percent inhibition of PKK mRNA, 1.00 μM [3]: 84%
percent inhibition of PKK mRNA, 3.00 μM [3]: 82%

547979 (antisense eG*eT*k[5mC]*dT*d[5mC]*dT*dT*dG*dG*d[5mC]*dA*dA*dA*k[5mC]*kA*eT) [compound 547979]
% inhibition ([2]; approximately 24 hours, primer probe set RTS3454, relative to untreated control cells, experiment of Table 23): 77%
percent inhibition of PKK mRNA, 0.11 μM [3]: 56%
percent inhibition of PKK mRNA, 0.33 μM [3]: 58%
percent inhibition of PKK mRNA, 1.00 μM [3]: 94%
percent inhibition of PKK mRNA, 3.00 μM [3]: 97%

548005 (eA*eG*kA*dG*dT*dA*dA*d[5mC]*d[5mC]*dA*dG*dA*dG*k[5mC]*kT*e[5mC]; antisense) [compound 548005]
% inhibition [2, 8]: 77%
pIC50 [3]: 6.40
percent inhibition of PKK mRNA, 0.11 μM [3]: 53%
percent inhibition of PKK mRNA, 0.33 μM [3]: 49%
percent inhibition of PKK mRNA, 1.00 μM [3]: 71%
percent inhibition of PKK mRNA, 3.00 μM [3]: 95%

547851 (antisense eT*eA*kA*dA*dT*dG*dT*d[5mC]*dT*d[5mC]*dG*dA*dT*kG*kG*e[5mC]) [compound 547851]
% inhibition ([2]; Table 20, approximately 24 hours, PKK mRNA by RT-PCR (RTS3454), relative to untreated control cells): 93%
% inhibition [2, 9]: 84%
pIC50 [3]: 6.40
percent inhibition of PKK mRNA, 0.11 μM [3]: 16%
percent inhibition of PKK mRNA, 0.33 μM [3]: 46%
percent inhibition of PKK mRNA, 1.00 μM [3]: 83%

547857 (antisense e[5mC]*eT*k[5mC]*dA*dT*dA*dT*d[5mC]*dA*dA*d[5mC]*dT*d[5mC]*k[5mC]*kT*eT) [compound 547857]
% inhibition [2, 9]: 84%
pIC50 [3]: 6.70
percent inhibition of PKK mRNA, 0.11 μM [3]: 36%
percent inhibition of PKK mRNA, 0.33 μM [3]: 66%
percent inhibition of PKK mRNA, 1.00 μM [3]: 77%
percent inhibition of PKK mRNA, 3.00 μM [3]: 93%

547807 (eG*e[5mC]*kA*dG*dT*dA*dT*dT*dG*dG*dG*d[5mC]*dA*kT*kT*eT; antisense) [compound 547807]
% inhibition ([2]; Table 21 experiment, approx. 24 hours, PKK mRNA by RT-PCR (RTS3454), relative to untreated control cells): 75%
pIC50 [3]: 6.40
percent inhibition of PKK mRNA, 0.11 μM [3]: 26%
percent inhibition of PKK mRNA, 0.33 μM [3]: 71%
percent inhibition of PKK mRNA, 1.00 μM [3]: 61%
percent inhibition of PKK mRNA, 3.00 μM [3]: 94%
